This is an account of results in paper PMC7567501 (Journal of Enzyme Inhibition and Medicinal Chemistry, 2019).

A short description of data set [1]: Cu(II) complexation, UV-vis spectrophotometric titration. Format: physicochemical. The note with it: 25% w/w DMSO/water. The protocol:
(§1) It has been largely accepted that chelators interfere both in metal-induced Aβ aggregation/neurotoxicity and on metal homeostasis of AD brains. Among the hybrids with BF hydroxyl substituent, compound 21 was chosen as a representative model to analyse the concomitant chelating capacity towards the redox-active (Fe(III), Cu(II)) and Aβ-binding (Cu(II)) metal ions. Due to solubility reasons, these studies were performed in a mixed 25% (w/w) DMSO/water medium, In fact, DMSO was chosen because it is a widely used and well tolerated solvent in biological and cellular studies, the amounts of ligand (<7 µM) and DMSO (<1%) employed in culture media being quite low with concomitant no alterations observed in cells.
(§2) The chelating ability of compound 21 towards the two metal ions under study (Fe(III) and Cu(II)) was evaluated on the basis of the global formation constants of the complexes, obtained by treatment of the UV-vis spectrophotometric data (see Table 1).
(§3) For the metal complexation studies, the aqueous iron (FeCl3, 0.0177 M) and copper (CuCl2, 0.015 M) stock solutions were prepared from 1000 ppm standards (Titrisol) and their metal content was evaluated by atomic absorption. To prevent hydrolysis, the iron stock solution was prepared in excess of acid chloride and its exact concentration in HCl determined by the usual standard-addition method using 0.1 M HCl (Titrisol). The 0.1 M HCl solution, used in spectrophotometric titrations, was prepared from a Titrisol ampoule while the titrant was from carbonate free commercial concentrate (Titrisol, KOH 0.1 M ampoules). The KOH solution was standardised by titration with a solution of potassium hydrogen phthalate and was discarded whenever the percentage of carbonate, determined by Gran’s method, was greater than 0.5% of the total amount of base.
(§4) The electronic spectra and the AChE inhibition assays were performed in a 1-cm path length quartz cell with a Perkin Elmer Lambda 35 spectrophotometer equipped with a temperature programmer PTP1 + 1 Peltier System (T = 25.0 ± 0.1 °C). The enzyme AChE 500 U, extracted from Electrophorus electricus (electric eel), was purchased from Sigma-Aldrich.

A short description of data set [2]: Fe(III) complexation, UV-vis spectrophotometric titration. Format: physicochemical. Particulars: 25% w/w DMSO/water. Here is the method:
as §1, §2, §3, §4

[3] abbreviates: pH 7.4, CL/CM = 10, CM = 10^−6 M.

`O=C(NCCCNc1c2c(nc3ccccc13)CCCC2)c1cc2cccc(O)c2o1` [Compound 21, 7-Hydroxy-N-(3-((1,2,3,4-tetrahydroacridin-9-yl)amino)propyl)benzofuran-2-carboxamide]: in data set [1] (T = 25.0 °C, I = 0.1 M KCl), the “log βCumHhLl, species (1–11)” value is reported as 2.25(3); the “log βCumHhLl, species (101)” value is 10.87(6); the “log βCumHhLl, species (102)” value is 20.68(8); the “log βCumHhLl, species (111)” value was 19.02(2). Besides, the “pM (pCu) = −log[M]” value in data set [1] (setting [3]) is 11.9. Also, in data set [2] (T = 25.0 °C, I = 0.1 M KCl), the “log βFemHhLl, species (1–22)” value was 12.21(8); the “log βFemHhLl, species (103)” value is 36.95(7); the “log βFemHhLl, species (111)” value is recorded as 22.90(6); the “log βFemHhLl, species (112)” value is 38.37(6). The “pM (pFe) = −log[M]” value in data set [2] (setting [3]) turned out to be 22.2.
